Reference: US20030091978A1, “Assay for glucocorticoid receptor signalling pathway” (priority 2000, published 2003)
Each block holds one compound with its values, some of them ahead of it.

Key:
Type in all cases: cell-based
[1] = system: AP-1 driven firefly-luciferase activity; assay: A549-AP1-firefly luciferase reporter assay; conditions: A549-AP1-firefly cells, stimulation with 10 ng/ml EGF
Protocol: Similarly the minimal region of the Interleukin-2 promoter containing 4 AP-1 binding sites was cloned upstream of the firefly luciferase gene to generate pAP1-firefly-neo
(§1) A549 cells were maintained in 5% CO2 at 37° C. in DMEM containing 10% foetal calf serum and 2 mM L-glutamine. Cells were stably transfected with p5NFkB-firefly-neo, p3GRE-renilla-neo or pAPI-firefly-neo using electroporation procedure. […] These cell lines were maintained in DMEM containing 10% foetal calf serum, 2 mM L-glutamine and 1 mg/ml G418.
(§2) Cells were plated into individual wells of a white 96-well viewplate at a cell density of 4×10^4/well in 100 μl of growth medium.
This cell line can therefore be used to monitor the repression of AP-1 signalling by glucocorticoid receptor ligands.

[2] = system: GRE-mediated gene transcription; assay: A549-GRE-Renilla luciferase reporter assay; conditions: A549-GRE-Renilla cells
Text: A synthetic GR responsive promoter consisting of three copies of the consensus glucocorticoid responsive element (GRE) (AGAACAnnnTGTACC) linked to a minimal herpes simplex thymidine kinase (HSV-TK) promoter was derived from the pGRE-SEAP plasmid purchased from Clontech. This was placed upstream of the Renilla luciferase reporter gene, contained in the pRLNull vector (Promega), to create the reporter construct p3GRE-renilla. The GRE containing promoter together with the renilla luciferase gene were then subcloned into the pcDNA3 vector, deleted of the CMV promoter, in order to generate the construct p3GRE-renilla-neo.
as §1, §2
This cell line will provide a means of measuring direct effects of glucocorticoid receptor agonists on GRE-mediated gene transcription.

[3] = system: NFkB driven firefly luciferase activity; assay: A549-NFkB-firefly luciferase reporter assay (FireLITE); conditions: A549-NFkB-firefly cells, stimulation with 0.5 ng/ml TNFα
Protocol: The firefly luciferase gene driven by a promoter containing five copies of the nuclear factor kB consensus sequence (GGGGACTTTCC) was derived from the pNF-kB-Luc plasmid, purchased from Stratagene, and subcloned into the pcDNA3 vector, deleted of the CMV promoter, in order to generate the construct p5NFkB-firefly-neo.
as §1, §2
The individual cell clones were first characterised for responsiveness in isolation.

increase in expression of firefly luciferase [1]: 2.4 fold
Compound: EGF: stimulatory factor used to activate AP-1 driven transcription

Compound: C[C@@H]1C[C@H]2[C@@H]3CCC4=CC(=O)C=C[C@]4(C)[C@@]3(F)[C@@H](O)C[C@]2(C)[C@@]1(O)C(=O)CO [dexamethasone]
maximal stimulation above basal of renilla luciferase activity [2]: 3 fold

increase in firefly luciferase activity [3]: 4.2 fold
Compound: TNFα
